How the values were obtained:
[1] = tested on: Programmed cell death 1 ligand 1 (Homo sapiens), Q9NZQ7 [UNDEFINED MUTATION]; assay: Displacement of 15N-labelled PD1 from human 15N-labelled 6His-tagged PDL1 IgV domain H140E mutant (18 to 134 residues) at 800 uM assessed as rescue signal intensity by HMQC spectra analysis
[2] = molecular target: Programmed cell death 1 ligand 1 (Homo sapiens, UniProt Q9NZQ7, H140E); assay: Binding affinity to human 15N-labelled 6His-tagged PDL1 IgV domain H140E mutant (18 to 134 residues) expressed in Escherichia coli BL21 (DE3) by 1D-1H NMR spectroscopy
[3] = tested on: Programmed cell death 1 ligand 1 (Homo sapiens), Q9NZQ7 [UNDEFINED MUTATION]; assay: Displacement of 15N-labelled PD1 from human 15N-labelled 6His-tagged PDL1 IgV domain H140E mutant (18 to 134 residues) at 2 mM assessed as rescue signal intensity by HMQC spectra analysis

Programmed cell death 1 ligand 1, sequence (Q9NZQ7 whole entry, looked up, stated change not applied, the tested form may be a part): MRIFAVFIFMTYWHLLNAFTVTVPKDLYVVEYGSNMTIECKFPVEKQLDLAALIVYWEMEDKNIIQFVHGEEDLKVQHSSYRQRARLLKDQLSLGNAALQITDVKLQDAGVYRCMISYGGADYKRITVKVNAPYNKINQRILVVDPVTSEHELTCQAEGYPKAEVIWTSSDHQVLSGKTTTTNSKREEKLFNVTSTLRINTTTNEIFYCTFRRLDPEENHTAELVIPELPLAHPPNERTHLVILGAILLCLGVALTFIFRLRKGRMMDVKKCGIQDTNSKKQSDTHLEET
Programmed cell death 1 ligand 1 (Homo sapiens), Q9NZQ7 [UNDEFINED MUTATION], sequence (Q9NZQ7 whole entry, looked up, stated change not applied, the tested form may be a part): as above

Structure (SMILES)	Activity [1]	Kd ([2]; read-out: Kd)	Kd [2]	Activity [3]
Cc1sc(N)nc1-c1ccc2c(c1)OCCO2	> 15%	1200 µM	–	–
COc1ccc2nc(NCc3cccnc3)sc2c1	1 to 15%	2900 µM	–	–
CNCc1ccc(-c2cc(Cl)cc(Cl)c2)o1	> 15%	1900 µM	–	–
Cc1cc(Nc2ccc(N3CCCC3)cc2)ncn1	1 to 15%	3000 µM	–	–
CC(=O)Oc1ccc2c(c1)cc(C)n2C	> 15%	–	Nd(Insoluble)	–
COC(=O)c1[nH]cc(-c2ccccc2F)c1N	1 to 15%	–	Nd(Insoluble)	–
CCN(CC)C(=O)c1sc2ccccc2c1Cl	> 15%	2500 µM	–	–
Cc1nc2cc(-c3ccccc3)ccc2o1	1 to 15%	–	Nd(Insoluble)	–
Oc1ncnc2scc(-c3ccccc3)c12	> 15%	–	Nd(Insoluble)	75%

Source: ChEMBL document CHEMBL4422676, “Fragment-based screening of programmed death ligand 1 (PD-L1)” (Bioorg Med Chem Lett, 2019)
